What was measured:
native TRPV1 = target: T1, native TRPV1 (Rattus norvegicus, UniProt O35433); assay: Whole-cell currents in cultured embryonic DRG neurons (patch clamp); assay type: cell-based; conditions: capsazepine 10 μM
T1 construct: RTX-induced membrane currents on native TRPV1 in embryonic DRG neurons grown in culture; endogenous in cells; host or cells: primary rat E18 DRG neurons
Experimental: (§1) Electrophysiology. Whole-cell and single-channel currents were recorded from rat DRG neurons in culture and from Xenopus laevis oocytes injected with rat TRPV1 cRNA. Animals were cared for according to the standards of the National Institutes of Health (NIH). All animal use protocols were approved by Southern Illinois University School of Medicine Animal Care Committee.
Primary DRG neuronal cultures were prepared from embryonic day 18 (E18) rat embryos. Adult pregnant rats were killed with an overdose of isoflurane. DRG were dissected and the cells were dissociated by triturating with a fire-polished glass pipette. Cells were cultured in Neurobasal medium (Life Technologies, Buffalo, N.Y., USA), supplemented with 10% fetal bovine serum (FBS), and grown on poly-D-lysine-coated glass coverslips. Cells were used from 5 to 15 days after plating. Small diameter (<30 μm) rounded neurons were selected for patch-clamp experiments. […] The Giga-seal patch-clamp technique was used to record whole-cell currents. For perforated-patch recordings, the bath solution contained (mM): sodium gluconate 140, KCl 2.5, Hepes 10, MgCl2 1 and ethylene glycol bis(2-aminoethyl ether)-N,N,N′N′-tetraacetic acid (EGTA) 1.5 (pH adjusted to 7.35 with NaOH), and the pipette solution contained (mM): sodium gluconate 130, NaCl 10, KCl 2.5, Hepes 10, MgCl2 1, EGTA 1.5 and 240 μg/ml^−1 amphotericin B (pH adjusted to 7.35 with NaOH). For current-clamp experiments the pipette solution contained (mM): potassium gluconate 130, NaCl 10, MgCl2 1, EGTA 0.2, K2ATP 1 and Hepes 10; pH adjusted to 7.35 with NaOH. Extracellular solution for current- and voltage-clamp experiments contained (mM): NaCl 140, KCl 4, MgCl2 1 and Hepes 10; pH adjusted to 7.35 with NaOH. Currents were recorded using a WPC 100 patch-clamp amplifier (E.S.F. Electronic, Goettingan, Germany). Data were filtered at 10 kHz, digitized (VR-10B, Instrutech Corp., Great Neck, N.Y., USA) and stored on videotapes or directly stored in the computer using a LabView interface. For analysis of whole-cell currents, data were filtered at 1 kHz (−3 db frequency with an 8-pole low-pass Bessel filter, Warner Instruments, LPF-8) and digitized at 2 kHz.
This example tests the activation of whole-cell current in DRG neurons by RTX. We determined the properties of RTX-induced membrane currents on native TRPV1 in embryonic DRG neurons grown in culture. […] Protons were not used to elicit currents because of the presence of acid-sensitive ion channels in these neurons.

rat TRPV1 = target: T2, rat TRPV1 (Rattus norvegicus, UniProt O35433); assay: Whole-cell currents in Xenopus laevis oocytes expressing TRPV1 (double-electrode voltage clamp); assay type: cell-based; conditions: ruthenium red 100 μM; RTX 10 nM repeated application
T2 construct: expressed in transfected cells; host or cells: Xenopus laevis oocytes injected with TRPV1 cRNA
T2 sequence (O35433 whole entry): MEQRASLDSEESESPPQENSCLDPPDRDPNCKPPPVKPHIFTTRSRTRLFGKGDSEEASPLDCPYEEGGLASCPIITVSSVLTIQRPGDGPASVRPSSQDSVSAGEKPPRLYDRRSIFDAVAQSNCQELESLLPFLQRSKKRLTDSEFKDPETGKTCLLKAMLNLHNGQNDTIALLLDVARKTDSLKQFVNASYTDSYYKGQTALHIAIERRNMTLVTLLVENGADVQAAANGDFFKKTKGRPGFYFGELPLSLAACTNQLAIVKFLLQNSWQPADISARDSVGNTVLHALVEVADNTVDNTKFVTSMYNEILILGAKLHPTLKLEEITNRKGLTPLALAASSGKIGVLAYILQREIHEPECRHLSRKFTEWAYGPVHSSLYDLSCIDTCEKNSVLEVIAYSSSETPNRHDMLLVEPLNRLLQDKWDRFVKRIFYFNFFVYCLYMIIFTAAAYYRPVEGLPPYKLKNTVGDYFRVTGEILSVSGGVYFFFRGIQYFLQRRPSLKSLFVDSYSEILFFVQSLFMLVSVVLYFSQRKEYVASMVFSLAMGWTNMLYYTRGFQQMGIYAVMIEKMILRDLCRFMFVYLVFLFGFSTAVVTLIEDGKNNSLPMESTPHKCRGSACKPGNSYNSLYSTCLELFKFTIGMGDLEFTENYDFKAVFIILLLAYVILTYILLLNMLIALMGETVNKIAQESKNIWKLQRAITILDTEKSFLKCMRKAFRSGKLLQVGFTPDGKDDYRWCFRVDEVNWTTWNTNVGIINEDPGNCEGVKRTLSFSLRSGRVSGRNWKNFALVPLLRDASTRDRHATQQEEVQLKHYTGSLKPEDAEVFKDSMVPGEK
Experimental: Rat TRPV1 dcRNA. Cloned rat TRPV1 was obtained from the Julius Lab at the University of California San Francisco. TRPV1 cRNA was obtained using standard techniques known to those of skill in the art.
as §1
Oocytes were obtained by an abdominal incision after anaesthetizing the frog by immersion in a 0.05% solution of 3-aminobenzoic acid ethyl ester (MS222). Animals were killed by a subcutaneous injection of a 2% solution of MS222 according to NIH guidelines. One day after separating the oocytes from the follicular layer, 50-70 nl TRPV1 cRNA was injected using a Drummond Nanoject (Drummond Scientific Co., Broomall, Pa., USA). Oocytes were used for recording from 3 days after the injection. Double-electrode voltage clamp was performed using a Warner amplifier (Warner Instruments, Hamden, Conn., USA). Data were digitized and stored on videotape or directly stored on the computer using a LabView interface (National Instruments, Austin, Tex., USA). Experiments were performed at 21-23° C. Oocytes were placed in a Perspex chamber superfused (5-10 ml min^−1) with Ca^2+-free Ringer solution containing (mM): NaCl 100, KCl 2.5 and Hepes 5; pH adjusted to 7.35 with NaOH. Current-voltage relationships were measured using 1-s voltage ramps from −80 to +80 mV.
This example tests the activation of whole-cell currents in oocytes by RTX. Whole-cell currents were recorded from oocytes heterologously expressing TRPV1. […] Agonist-induced currents are shown after subtracting the leak current in the absence of the agonist. […] In order to quantify this, we calculated the ratio of outward and inward currents. […] PKC activation increases sensitivity as well as TRPV1 translocation. […] (Szallasi et al. 1990b; Caterina et al. 1997; Marshall et al. 2003.)

T1 sequence (O35433 whole entry): as above

`Oc1cc2c(cc1O)CN(C(=S)NCCc1ccc(Cl)cc1)CCC2` [capsazepine] was tested, and the “block of current induced by capsaicin (1 μM) and RTX (10 nM)” value (native TRPV1) was “completely blocked”, the “rate of block induced by capsazepine” value (native TRPV1; RTX-induced (10 nM) currents) was 612.3 ± 219 s and the “rate of block induced by capsazepine” value (native TRPV1; capsaicin-induced (1 μM) currents) was 18.4 ± 2.8 s.

In the case of `N.N.N.N.N.N.N.N.N.N.N.N.N.N.[Cl-].[Cl-].[Cl-].[Cl-].[Cl-].[Cl-].[O-2].[O-2].[Ru+3].[Ru+3].[Ru+4]` [ruthenium red, reference compound], the “block of RTX-induced current” value (rat TRPV1) is reported as “readily blocked”.
